From US20180362543A1, “HIV REPLICATION INHIBITOR” (Shionogi & Co., Ltd., priority 2013, published 2018)

The compounds below were run on HIV (HTLV-III B strain) (assay: HIV replication inhibition assay (MTT, MT-4 cells)). Settings: Human immunodeficiency virus 1, MT4, 96 h, 4 days culture, concentration at which cell cytotoxicity by virus is inhibited 50%.
Type: cell-based
Description: HIV (HTLV-III B strain) persistent infected human T cell strain Molt-4 clone 8 was cultured in 10% Fetal Bovine Serum-containing RPMI-1640 medium and the supernatant was filtrated, then the virus titer was measured and the solution was stored at −80° C. Each anti-human immunodeficiency virus active substance was diluted with the above cultured medium to the designated concentration, which was dispensed into 96 well micro plate by 50 μL. Next, a MT-4 cell suspended liquid was dispensed by 100 μL (2.5×10^4 cells), then the above HIV-containing supernatant diluted with the above cultured medium was added thereto by 50 μL (60 pfu (plaque forming unit)).
The obtained mixture was cultured at 37° C. in CO2 incubator for four days, then 3-(4,5-dimehylthiazole-2-yl)-2,5-diphenyltetrazolynium bromide (MTT) 5 mg/mL in PBS was added to each well by 30 μL, followed by 1 hr-cultivation. In this step, as formazan was precipitated by reduction of MTT in living cells, the cell supernatant was removed from all well by 150 μL, then a 150 μL of solution (10% Triton X-100 and […]) was added thereto, followed by shaking with a plate mixer, to elute formazan. The formazan was measured with a microreader at OD: 560 nm and 690 nm (wavelength) and the result was compared with the reference. EC50 means the compound concentration at which cell cytotoxicity by virus is inhibited 50%.

SMILES	EC50
Cc1ccc(-c2c(C)c3c(c(C)c2[C@H](OC(C)(C)C)C(=O)O)S(=O)(=O)Cc2cc(F)cc(F)c2-3)cc1 [Compound 298]	30 nM
Cc1ccc(-c2c(C)c3c(c(C)c2[C@H](OC(C)(C)C)C(=O)O)N(S(C)(=O)=O)Cc2c(C(F)(F)F)ccnc2-3)cc1 [Compound 319]	8.4 nM
COc1nc2c(s1)CN(S(C)(=O)=O)c1c(C)c([C@H](OC(C)(C)C)C(=O)O)c(-c3ccc(C)cc3)c(C)c1-2 [Compound 307]	51 nM
Cc1c(-c2ccc3c(c2C)N(C)CCO3)c([C@H](OC(C)(C)C)C(=O)O)c(C)c2c1-c1c(F)ccc(F)c1CN2S(C)(=O)=O [Compound 321]	15 nM
Cc1ccc(-c2c(C)c3c(c(C)c2[C@H](OC(C)(C)C)C(=O)O)N(S(C)(=O)=O)Cc2cc(Cl)ccc2-3)cc1 [Compound 301]	4.9 nM
Cc1c(-c2cc(F)c3c(c2F)CCCO3)c([C@H](OC(C)(C)C)C(=O)O)c(C)c2c1-c1c(F)ccc(F)c1CN2S(C)(=O)=O [Compound 299]	26 nM

Same assay, conditions: Human immunodeficiency virus 1, MT4, 96 h, Table A-2, four days

EC50	SMILES
8.5 nM	Cc1ccc(-c2c(C)c3c(c(C)c2[C@H](OC(C)(C)C)C(=O)O)NC(=O)C2(CCC(C)(C)CC2)N3)cc1 [Compound 112]
4.2 nM	Cc1ccc(-c2c(C)c3c(c(C)c2[C@H](OC(C)(C)C)C(=O)O)NS(=O)(=O)Cc2cc(F)ccc2-3)cc1 [Compound 91]
10 nM	Cc1ccc(-c2c(C)c3c(c(C)c2[C@H](OC(C)(C)C)C(=O)O)NS(=O)(=O)N(C2CCCCCC2)CC3)cc1 [Compound 128]
6 nM	Cc1ccc(-c2c(C)c3c(c(C)c2[C@H](OC(C)(C)C)C(=O)O)N(S(C)(=O)=O)Cc2cc(C)ccc2-3)cc1 [Compound 115]
2.9 nM	Cc1ccc(-c2c(C)c3c(c(C)c2[C@H](OC(C)(C)C)C(=O)O)N(S(C)(=O)=O)Cc2c-3ccc3cccnc23)cc1 [Compound 116]
9.1 nM	Cc1ccc(-c2c(C)c3c(c(C)c2[C@H](OC(C)(C)C)C(=O)O)N(S(C)(=O)=O)Cc2cccc(F)c2-3)cc1 [Compound 109]

Same assay, conditions: Human immunodeficiency virus 1, MT4, 96 h, Table A-3, four days

EC50	SMILES
1.7 nM	Cc1ccc(-c2c(C)c3c(c(C)c2[C@H](OC(C)(C)C)C(=O)O)N(S(C)(=O)=O)Cc2cc4c(cc2-3)COC4)cc1 [Compound 166]
9.6 nM	Cc1ccc(-c2c(C)c3c(c(C)c2[C@H](OC(C)(C)C)C(=O)O)N(S(C)(=O)=O)Cc2cccc(C(F)(F)F)c2-3)cc1 [Compound 169]
47 nM	Cc1ccc(-c2c([C@H](OC(C)(C)C)C(=O)O)c(C)c3nc(O)c4c(c3c2C)CCN(S(=O)(=O)c2ccc(F)cc2)C4)cc1 [Compound 153]
4.4 nM	Cc1ccc(-c2c(C)c3c(c(C)c2[C@H](OC(C)(C)C)C(=O)O)N(S(C)(=O)=O)Cc2c(F)ccc(F)c2-3)cc1 [Compound 142]
23 nM	Cc1ccc(-c2c(C)c3c(c(C)c2[C@H](OC(C)(C)C)C(=O)O)NS(=O)(=O)Cc2cccc(F)c2-3)cc1 [Compound 156]

Same assay, conditions: Human immunodeficiency virus 1, MT4, 96 h, Table A-4, four days

EC50	SMILES
15 nM	Cc1ccc(-c2c(C)c3c(c(C)c2[C@H](OC(C)(C)C)C(=O)O)N(S(C)(=O)=O)Cc2c(C)cccc2-3)cc1 [Compound 208]
4.9 nM	COc1cc2c(cn1)-c1c(C)c(-c3ccc(C)cc3)c([C@H](OC(C)(C)C)C(=O)O)c(C)c1N(S(C)(=O)=O)C2 [Compound 214]

Same assay, conditions: Human immunodeficiency virus 1, MT4, 96 h, Table A-5, four days

EC50	SMILES
12 nM	COc1ccc(-c2c(C)c3c(c(C)c2[C@H](OC(C)(C)C)C(=O)O)N(S(C)(=O)=O)Cc2cccc(F)c2-3)cc1 [Compound 263]
11 nM	Cc1ccc(-c2c(C)c3c(c(C)c2[C@H](OC(C)(C)C)C(=O)O)N(S(C)(=O)=O)Cc2nc(C)ccc2-3)cc1 [Compound 248]
3.7 nM	Cc1ccc(-c2c(C)c3c(c(C)c2[C@H](OC(C)(C)C)C(=O)O)N(S(C)(=O)=O)Cc2cccc(F)c2-3)c(C)c1 [Compound 278]
3.2 nM	Cc1c(-c2c(C)c3c(c(C)c2[C@H](OC(C)(C)C)C(=O)O)N(S(C)(=O)=O)Cc2cc(F)cc(F)c2-3)ccc2c1NCCO2 [Compound 286]
16 nM	Cc1ccc(-c2c(C)c3c(c(C)c2[C@H](OC(C)(C)C)C(=O)O)N(S(C)(=O)=O)Cc2cc(F)cnc2-3)cc1 [Compound 284]
3.1 nM	Cc1ccc2c(c1F)CN(S(C)(=O)=O)c1c(C)c([C@H](OC(C)(C)C)C(=O)O)c(-c3ccc4c(c3C)NCCO4)c(C)c1-2 [Compound 254]
53 nM	CC(=O)N1Cc2ccccc2-c2c(C)c(-c3ccc(C)cc3)c([C@H](OC(C)(C)C)C(=O)O)c(C)c21 [Compound 290]

Same assay, conditions: Human immunodeficiency virus 1, MT4, 96 h, Table A-7, four days

EC50	SMILES
22 nM	Cc1cccc2c1-c1c(C)c(-c3ccc4c(c3C)NCCO4)c([C@H](OC(C)(C)C)C(=O)O)c(C)c1N(S(C)(=O)=O)C2 [Compound 347]
24 nM	Cc1c(-c2ccc(F)cc2O)c([C@H](OC(C)(C)C)C(=O)O)c(C)c2c1-c1c(F)ccc(F)c1CN2S(C)(=O)=O [Compound 332]
96 nM	Cc1c(-c2c(C)c3c(c(C)c2[C@H](OC(C)(C)C)C(=O)O)N(S(C)(=O)=O)Cc2cccc(F)c2-3)ccc2c1NC(=O)CO2 [Compound 350]
4.3 nM	Cc1c(-c2ccc3c(c2)NCCC3)c([C@H](OC(C)(C)C)C(=O)O)c(C)c2c1-c1c(F)cccc1CN2S(C)(=O)=O [Compound 340]
16 nM	Cc1cc(C)c(-c2c(C)c3c(c(C)c2[C@H](OC(C)(C)C)C(=O)O)N(S(C)(=O)=O)Cc2cccc(F)c2-3)s1 [Compound 343]
4.8 nM	Cc1cccc2c1CN(S(C)(=O)=O)c1c(C)c([C@H](OC(C)(C)C)C(=O)O)c(-c3ccc4c(c3C)NCCO4)c(C)c1-2 [Compound 346]
9 nM	CC(=O)N1Cc2cccc(F)c2-c2c(C)c(-c3ccc4c(c3C)NCCO4)c([C@H](OC(C)(C)C)C(=O)O)c(C)c21 [Compound 342]
22 nM	Cc1ccc(-c2c(C)c3c(c(C)c2[C@H](OC(C)(C)C)C(=O)O)N(S(C)(=O)=O)Cc2cccc(F)c2-3)s1 [Compound 334]
4.5 nM	CCC(C)(C)O[C@H](C(=O)O)c1c(C)c2c(c(C)c1-c1ccc3c(c1C)NCCO3)-c1c(F)cccc1CN2S(C)(=O)=O [Compound 351]
8.1 nM	Cc1c(-c2ccc(Cl)cc2O)c([C@H](OC(C)(C)C)C(=O)O)c(C)c2c1-c1c(F)cccc1CN2S(C)(=O)=O [Compound 324]

Same assay, conditions: Human immunodeficiency virus 1, MT4, 96 h, Table A-8 (continuation of Tables A-1 to A-9), four days

EC50	SMILES
7.6 nM	Cc1c(-c2c(C)c3c(c(C)c2[C@H](OC(C)(C)C)C(=O)O)N(S(C)(=O)=O)Cc2cccc(F)c2-3)ccc(Br)c1N [Compound 367]
44 nM	Cc1c(-c2ccc(Cl)cc2)c([C@H](OC(C)(C)C)C(=O)O)c(C)c2c1-c1ncccc1CN2S(C)(=O)=O [Compound 369]
49 nM	Cc1ccc(-c2c(C)c3c(c(C)c2[C@H](OC(C)(C)C)C(=O)O)N(S(C)(=O)=O)Cc2cc(C)cnc2-3)c(O)c1 [Compound 382]
27 nM	Cc1ccc(-c2c(C)c3c(c(C)c2[C@H](OC(C)(C)C)C(=O)O)N(S(C)(=O)=O)Cc2cccc(F)c2-3)c(CO)c1 [Compound 394]
67 nM	COc1nc2c(cc1F)CN(S(C)(=O)=O)c1c(C)c([C@H](OC(C)(C)C)C(=O)O)c(-c3ccc(C)cc3)c(C)c1-2 [Compound 389]

Same assay, conditions: Human immunodeficiency virus 1, MT4, 96 h, Table A-9, four days

EC50	SMILES
< 7.8 nM	Cc1cnc2c(c1)CN(S(C)(=O)=O)c1c(C)c([C@H](OC(C)(C)C)C(=O)O)c(C3=CCC(C)(C)CC3)c(C)c1-2 [Compound 404]

Same assay, conditions: Table A-2, four days

EC50	SMILES
2.1 nM	Cc1ccc(-c2c(C)c3c(c(C)c2[C@H](OC(C)(C)C)C(=O)O)N(S(C)(=O)=O)Cc2cc4c(cc2-3)OCCO4)cc1 [Compound 104]
4.4 nM	Cc1ccc(-c2c(C)c3c(c(C)c2[C@H](OC(C)(C)C)C(=O)O)NS(=O)(=O)Cc2cc(C)ccc2-3)cc1 [Compound 118]
